The values below come from patent US10377717B2, “Farnesoid X receptor agonists and uses thereof” (Metacrine, Inc., priority 2015, dated 2019).

For assay [1], the target named is T1, hFXR (Homo sapiens (Human), UniProt Q96RI1). Nature of the assay: In Vitro FXR Assay (PGL3), luciferase reporter in transfected CV-1 cells. The conditions noted are these: PGL3-ECRE*6-luc reporter, hFXR/hRXR, 18 hrs incubation. In kind it is cell-based. The procedure:
CV-1 cells were seeded at a density of 2,000,000 cells in a T175 flask with DMEM+10% charcoal double-stripped FBS and incubated at 37° C. in a 5% CO2 for 18 h (O/N).
After 18 h of incubation, the medium in the T175 flask was changed with fresh DMEM+10% charcoal super-stripped serum.
To prepare the transfection reaction mixture, the transfection reagent (X-tremeGENE HP from Roche, Cat #06 366 236 001) was added in to a 1.5 mL microcentrifuge tube labelled “A” at a ratio of 1:3 (DNA in μg: transfection reagent in μL). OptiMEM medium (Life Technologies, Cat #31985-062) was added accordingly to provide a total volume of 1 mL. The transfection reaction mixture was then briefly vortexed and incubated at room temperature for 5 minutes.
In a separate 1.5 mL microcentrifuge tube labelled “B”, 100 μL OptiMEM and plasmids XPD90Gal pCMXhFXRfl, pCMXhRXRfl+PGL3-ECRE*6-luc+CMX-YFP in the ratio 2 μg: 2 μg:18 μg:3 μg were added. This microcentrifuge tube “B” was then briefly vortexed and incubated at room temperature for 5 minutes.
The total volume in tube labelled “A” was then transferred in to tube labelled “B.” The mixture was then briefly vortexed and the transfection:DNA complex was then incubated for about 15-20 minutes at room temperature.
Following incubation, the transfection reagent/DNA mixture complex was then added to cells in the T175 flask and the cells were incubated at […] (O/N) at 37° C. in 5% CO2.
In a 96 well plate, a half logarithmic serial dilution was prepared. OptiMEM was used as the diluent. Using any of one of the compounds described herein, a compound stock solution of 10 mM was prepared. An initial 1:100 dilution was made into the first well for a final concentration of 100 μM. The final concentrations in the 96-well plate was prepared by using a multichannel pipette to transfer 5 μL of the diluted compound to 384-well plate in quadruplicate.
Cells in T175 flask were trypsinized and cells were resuspending in 40 mL phenol red free DMEM+10% charcoal super-stripped FBS. Typically, one T175 flask was sufficient to seed two 384 well plates. CV-1 cells were seeded at 45 μL cell suspension/well using a multichannel pipet or a 384 multidrop dispenser. The cells were then incubated for 18 hrs, overnight.
After removing the plates from the incubator, the medium was flicked out of plate and 384 well plate was turned upside down onto paper towel. The remaining medium was gently tapped out. 15 μL lysis buffer was then added to each well using a multichannel pipet or a 384 well multi-drop dispenser. After incubation for 10 minutes at room temperature on shaker, 30 μL Luciferase buffer was added to each well. Luminescence counts were taken immediately using the Perkin Elmer Envision.
The ability of the compounds disclosed herein to […] FXR activity was quantified and the respective EC50 value was determined. Fex=fexaramine.

Assay [2] concerns the target T1, hFXR. Nature of the assay: In Vitro FXR Assay (TK), luciferase reporter in transfected CV-1 cells. The assay is classed as cell-based. The conditions noted are these: TK-ECRE-luc reporter, hFXR/hRXR, 18 hrs, maximum efficacy <25% of Fexaramine control classified as '+'. A digest of the protocol:
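Transiently transfected monkey CV-1 cells (hFXR, hRXR, TK-ECRE-luciferase, YFP control plasmid), held in stripped-serum DMEM, received compound dilutions from DMSO for 18 h at 37 °C. Activity was taken from luminescence of the cell lysates.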

T1 sequence (Q96RI1 whole entry): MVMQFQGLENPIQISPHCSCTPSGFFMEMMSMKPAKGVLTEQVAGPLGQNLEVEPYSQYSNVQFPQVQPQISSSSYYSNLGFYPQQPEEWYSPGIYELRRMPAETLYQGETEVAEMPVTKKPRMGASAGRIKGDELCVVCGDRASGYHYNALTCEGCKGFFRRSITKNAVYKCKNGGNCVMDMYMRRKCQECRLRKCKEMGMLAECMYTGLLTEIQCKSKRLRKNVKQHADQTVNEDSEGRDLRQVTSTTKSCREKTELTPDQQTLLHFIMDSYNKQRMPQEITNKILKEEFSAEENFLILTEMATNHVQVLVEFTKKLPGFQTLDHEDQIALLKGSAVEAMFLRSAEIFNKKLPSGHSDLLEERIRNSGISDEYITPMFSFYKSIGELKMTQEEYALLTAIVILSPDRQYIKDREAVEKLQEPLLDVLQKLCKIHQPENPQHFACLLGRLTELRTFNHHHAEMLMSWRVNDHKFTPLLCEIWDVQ
T1 sequence (P19793 whole entry partner): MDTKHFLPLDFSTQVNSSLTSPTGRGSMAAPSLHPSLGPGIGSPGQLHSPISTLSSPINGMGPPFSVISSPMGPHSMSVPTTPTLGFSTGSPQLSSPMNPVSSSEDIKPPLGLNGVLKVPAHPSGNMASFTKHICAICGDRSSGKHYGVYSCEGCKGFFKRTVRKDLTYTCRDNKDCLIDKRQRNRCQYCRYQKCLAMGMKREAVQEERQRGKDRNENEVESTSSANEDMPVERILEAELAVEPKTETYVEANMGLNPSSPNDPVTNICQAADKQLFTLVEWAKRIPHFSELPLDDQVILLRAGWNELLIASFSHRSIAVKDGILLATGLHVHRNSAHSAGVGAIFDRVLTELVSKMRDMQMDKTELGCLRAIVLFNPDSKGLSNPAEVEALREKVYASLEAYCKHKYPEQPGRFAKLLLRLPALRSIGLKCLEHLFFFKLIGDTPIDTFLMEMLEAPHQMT

With `COC(=O)c1ccc2c(N(Cc3ccc(-c4ccc(N(C)C)cc4)cc3)C(=O)C3CCCCC3)cccc2c1` [Compound 8, Methyl 5-(N-((4′-(dimethylamino)-[1,1′-biphenyl]-4-yl)methyl)cyclohexanecarboxamido)-2-naphthoate], in assay [1], the “Cmpd/Fex (ratio of the EC50 for the test compound relative to the EC50 of the Fexaramine control)” value was “++ (‘++’ means Cmpd/Fex > 10 & < 100)”. The compound further had an EC50 in assay [2] of 1 to 10 µM.
Taken in the same sequence, the figures for `COC(=O)/C=C/c1ccnc(N(Cc2ccc(-c3ccc(N(C)C)nc3)cc2)C(=O)[C@H]2CC[C@H](O)CC2)c1` [Compound 7, (E)-Methyl 3-(2-(trans-N-(4-(6-(dimethylamino)pyridin-3-yl)benzyl)-4-hydroxycyclohexanecarboxamido)pyridin-4-yl)acrylate] were “+ (‘+’ means Cmpd/Fex > 100)” and 1 to 10 µM.
Take `COC(=O)/C=C/c1ccnc(N(Cc2ccc(-c3ccc(N(C)C)cc3)cc2)C(=O)C2CCCCC2)c1` [Compound 1, (E)-Methyl 3-(2-(N-((4′-(dimethylamino)-[1,1′-biphenyl]-4-yl)methyl)cyclohexanecarboxamido)pyridin-4-yl)acrylate]: the “Cmpd/Fex (ratio of the EC50 for the test compound relative to the EC50 of the Fexaramine control)” value in assay [1] was “+++ (‘+++’ means Cmpd/Fex < 10)”. In assay [2], this compound returned an EC50 not above 1 µM.
With `CN(C)c1ccc(-c2ccc(CN(C(=O)C3CCCCC3)c3cccc4ccccc34)cc2)cc1` [Compound 9, N′-((4′-(Dimethylamino)-[1,1′-biphenyl]-4-yl)methyl)-N-(naphthalen-1-yl)cyclohexanecarboxamide], in assay [1], the “Cmpd/Fex (ratio of the EC50 for the test compound relative to the EC50 of the Fexaramine control)” value is “++ (‘++’ means Cmpd/Fex > 10 & < 100)”. For the same compound, the EC50 in assay [2] was not below 10 µM.
The matching figures for `COC(=O)/C=C/c1cccc(N(Cc2ccc(-c3ccc(N(C)C)cc3)cc2)C(=O)C2CCCCC2)n1` [Compound 2, (E)-Methyl 3-(6-(N-((4′-(dimethylamino)-[1,1′-biphenyl]-4-yl)methyl)cyclohexanecarboxamido)pyridin-2-yl)acrylate]: “++ (‘++’ means Cmpd/Fex > 10 & < 100)” and not below 10 µM.
With `COC(=O)/C=C/c1ccnc(N(Cc2ccc(-c3ccc(N(C)C)nc3)cc2)C(=O)C2CCOCC2)c1` [Compound 6, (E)-Methyl 3-(2-(N-(4-(6-(dimethylamino)pyridin-3-yl)benzyl)tetrahydro-2H-pyran-4-carboxamido)pyridin-4-yl)acrylate], the “Cmpd/Fex (ratio of the EC50 for the test compound relative to the EC50 of the Fexaramine control)” value in assay [1] is “+ (‘+’ means Cmpd/Fex > 100)”. The EC50 in assay [2] lay within 1 to 10 µM.
As to `COC(=O)/C=C/c1ccnc(N(Cc2ccc(-c3ccc(N(C)C)cc3)cc2)C(=O)C2CCOCC2)c1` [Compound 4, (E)-Methyl 3-(2-(N-((4′-(dimethylamino)-[1,1′-biphenyl]-4-yl)methyl)tetrahydro-2H-pyran-4-carboxamido)pyridin-4-yl)acrylate], in assay [1], the “Cmpd/Fex (ratio of the EC50 for the test compound relative to the EC50 of the Fexaramine control)” value was “+++ (‘+++’ means Cmpd/Fex < 10)”. In assay [2], the EC50 fell in the range of 1 to 10 µM.
For `COC(=O)/C=C/c1cc(N(Cc2ccc(-c3ccc(N(C)C)cc3)cc2)C(=O)C2CCCCC2)ccn1` [Compound 3, (E)-Methyl 3-(4-(N-((4′-(dimethylamino)-[1,1′-biphenyl]-4-yl)methyl)cyclohexanecarboxamido)pyridin-2-yl)acrylate], in assay [1], the “Cmpd/Fex (ratio of the EC50 for the test compound relative to the EC50 of the Fexaramine control)” value is on record as “+++ (‘+++’ means Cmpd/Fex < 10)”. The compound also registered an EC50 in assay [2] of 1 to 10 µM.
